Assay [1] is described as follows: Downregulation of DUSP6 transcription in human KYSE-520 cells at 30 uM measured after 2 hrs relative to control. In kind it is functional.
Assay [2] concerns the target T1, Tyrosine-protein phosphatase non-receptor type 11 (Homo sapiens, UniProt Q06124).
T1 sequence (Q06124 whole entry): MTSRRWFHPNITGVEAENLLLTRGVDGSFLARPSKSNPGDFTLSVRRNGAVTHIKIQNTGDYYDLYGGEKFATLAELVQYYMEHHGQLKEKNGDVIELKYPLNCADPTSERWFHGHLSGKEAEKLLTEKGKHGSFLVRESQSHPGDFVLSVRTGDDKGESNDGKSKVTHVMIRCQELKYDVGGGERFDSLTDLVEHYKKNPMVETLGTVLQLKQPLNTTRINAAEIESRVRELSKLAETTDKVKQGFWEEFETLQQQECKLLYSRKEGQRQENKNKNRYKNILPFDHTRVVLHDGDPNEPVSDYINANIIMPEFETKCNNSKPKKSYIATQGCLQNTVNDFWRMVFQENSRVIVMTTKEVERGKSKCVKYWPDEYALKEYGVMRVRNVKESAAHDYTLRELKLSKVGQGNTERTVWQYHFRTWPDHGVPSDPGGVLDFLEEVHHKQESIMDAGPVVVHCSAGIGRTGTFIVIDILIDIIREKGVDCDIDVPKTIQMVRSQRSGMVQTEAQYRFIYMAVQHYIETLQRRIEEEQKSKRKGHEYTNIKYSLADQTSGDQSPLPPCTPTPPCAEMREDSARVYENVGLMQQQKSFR
The assay is described as follows: Inhibition of full length SHP2 (unknown origin) using DiFMUP as substrate preincubated for 30 mins followed by substrate addition.

SMILES strings stand for the structures.

The IC50 is the concentration needed to halve the response being measured. Read a high IC50 as weaker potency.

`COc1cccc(-c2nnc3n(Cc4ccccc4Cl)c(=O)c4ccccc4n23)c1O`: in assay [1], the Activity was determined as 65%.
As for `O=C(O)c1ccc(O)c(-c2nnc3n(Cc4ccccc4Cl)c(=O)c4ccccc4n23)c1`, in assay [1], the Activity was determined as 55%.
For `COc1cccc(-c2nnc3n(Cc4ccc(C(=O)N5CCC[C@H]5C(=O)O)cc4Cl)c(=O)c4ccccc4n23)c1O`, the Activity in assay [1] is given as 43%.
`Cc1nc(N2CCC3(CC2)OC[C@@H](C)[C@H]3N)c(CO)nc1-c1cccc(Cl)c1Cl` showed an IC50 in assay [2] of 0.583 nM.
